Drawing on PubChem BioAssay (NCI), this text covers GI50 and TGI for 13 compounds.

Values joined by “and” are separate entries in the source; they are usually repeats but may differ in a detail not shown here. Equal values may be shown once.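 Cultured in 96-well plates, cells were exposed to test compound for 48 hours across five concentrations. GI50: concentration for 50% inhibition of growth. TGI denotes the concentration required for complete inhibition of growth.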

Test systems include COLO 205 colon; UACC-62 melanoma; HS 578T breast; NCI-H226 lung; RPMI-8226 leukemia; SK-MEL-28 melanoma; SN12C renal; HL-60(TB) leukemia; EKVX NSCLC; CAKI-1 renal.
Holding throughout (assay): NCI-60 cell line screen, 48 h

Take `O=C1OCC2=C1C(c1cccc(Cl)c1)c1cc3c(cc1N2CCO)CCC3` (stereo not drawn): the GI50 in the assay on COLO 205 colon is 0.0401 µM; in the assay on UACC-62 melanoma, 0.0427 µM; with HS 578T breast it was 0.0453 µM; in the assay with NCI-H226 lung it was 0.0527 µM; with RPMI-8226 leukemia, 0.0386 µM; in the assay on SK-MEL-28 melanoma, 0.0574 µM. Further, the GI50 was 0.0759 µM in the assay on SN12C renal, 0.0318 µM in the assay on HL-60(TB) leukemia, 0.295 µM in the assay on EKVX NSCLC and 0.0493 µM in the assay on CAKI-1 renal. Further, the TGI is 0.309 µM in the assay on COLO 205 colon; 15.3 µM in the assay on UACC-62 melanoma; 22.2 µM in the assay on HS 578T breast; 0.912 µM in the assay with NCI-H226 lung; 10.1 µM in the assay on RPMI-8226 leukemia; 20.2 µM in the assay with SK-MEL-28 melanoma. Moreover, the TGI was 11.9 µM in the assay on SN12C renal, 0.353 µM in the assay on HL-60(TB) leukemia, 17.2 µM with EKVX NSCLC and 14.7 µM in the assay on CAKI-1 renal.

Take `COc1ncc(-c2ccc3nccc(C#CCCCCC(=O)NO)c3c2)cc1NS(=O)(=O)c1ccc(F)cc1F`: the GI50 is 0.0897 µM in the assay with COLO 205 colon; below 0.0195 µM in the assay on UACC-62 melanoma; 0.0307 µM in the assay with HS 578T breast; 1.59 µM in the assay on NCI-H226 lung; 1.02 µM in the assay with RPMI-8226 leukemia; 0.0692 µM in the assay on SK-MEL-28 melanoma. The GI50 in the assay on HL-60(TB) leukemia is 0.0665 µM; with EKVX NSCLC, 0.0569 µM; in the assay with CAKI-1 renal, 0.875 µM. The TGI came out at 2.18 µM with COLO 205 colon; 1.17 µM in the assay on HS 578T breast; 15.5 µM in the assay with NCI-H226 lung; 4.79 µM in the assay with RPMI-8226 leukemia; 2.1 µM in the assay with SK-MEL-28 melanoma; 17.5 µM in the assay with SN12C renal. Besides, the figures for the TGI in the assay with HL-60(TB) leukemia, with EKVX NSCLC and with CAKI-1 renal were 3.06 µM, 4.09 µM and 11.8 µM, respectively.

Take `Cc1c(Cl)c(C)c(Cl)c(O)c1Cl`: the TGI in the assay with COLO 205 colon was above 100 µM; in the assay with UACC-62 melanoma, 37.4 µM; in the assay with HS 578T breast, 61.2 µM; with NCI-H226 lung, 63.3 µM; in the assay with RPMI-8226 leukemia it was 68.3 µM; in the assay with SK-MEL-28 melanoma it was above 100 µM. The TGI is above 100 µM in the assay with SN12C renal, 58.4 µM in the assay with HL-60(TB) leukemia, 82.1 µM with EKVX NSCLC and 62.7 µM in the assay on CAKI-1 renal.

As for `COC(=O)Nc1nc2ccc(C(=O)c3ccc(F)cc3)cc2[nH]1`, the GI50 with COLO 205 colon is 0.152 µM; in the assay on UACC-62 melanoma, 0.199 µM; with HS 578T breast, 0.146 µM; in the assay on NCI-H226 lung, 0.464 µM; in the assay on RPMI-8226 leukemia it was 0.434 µM; in the assay with SK-MEL-28 melanoma, 0.556 µM. Also, the GI50 with SN12C renal was 0.841 µM; with HL-60(TB) leukemia, 0.107 µM; with EKVX NSCLC, 0.438 µM; in the assay with CAKI-1 renal it was 2.34 µM. Moreover, the TGI was 0.554 µM in the assay on COLO 205 colon; 17.8 µM in the assay on UACC-62 melanoma; 0.502 µM in the assay with HS 578T breast; 3.23 µM with NCI-H226 lung; above 100 µM in the assay on SK-MEL-28 melanoma; above 100 µM in the assay with SN12C renal. For the same compound, the TGI is 0.608 µM in the assay on HL-60(TB) leukemia, above 100 µM with EKVX NSCLC and above 36.4 µM in the assay with CAKI-1 renal.

`COc1cc2c(cc1[N+](=O)[O-])C(=O)C(Br)(Br)CCC2`: the TGI with COLO 205 colon amounted to 3.57 µM; in the assay with UACC-62 melanoma it was 10 µM; in the assay with HS 578T breast, 23.2 µM; in the assay with NCI-H226 lung, 10.7 µM; in the assay on RPMI-8226 leukemia, 4.07 µM; in the assay on SN12C renal it was 5.16 µM. The TGI in the assay with HL-60(TB) leukemia came out at 21 µM; with EKVX NSCLC, 6.25 µM; with CAKI-1 renal, 7.8 µM.

With `CN1CCN(CCC=C2c3ccccc3Sc3ccc(S(=O)(=O)N(C)C)cc32)CC1`, the GI50 in the assay with COLO 205 colon was 1.44 µM and 1.66 µM; with UACC-62 melanoma, 1.66 µM and 1.76 µM; in the assay with HS 578T breast, 3.4 µM and 3 µM; in the assay on NCI-H226 lung, 7.04 µM and 15.9 µM; in the assay on RPMI-8226 leukemia, 2.33 µM and 2.6 µM; in the assay with SK-MEL-28 melanoma, 1.8 µM and 1.77 µM. The GI50 is 6.23 µM and 13.8 µM in the assay with SN12C renal; 2.38 µM and 2.41 µM in the assay on HL-60(TB) leukemia; 9.15 µM and 13.6 µM with EKVX NSCLC; 3.45 µM and 5.41 µM in the assay on CAKI-1 renal. In addition, the TGI in the assay with COLO 205 colon is 2.82 µM and 3.7 µM; with UACC-62 melanoma it was 3.21 µM and 3.48 µM; in the assay on HS 578T breast, 23.2 µM and 14.8 µM; in the assay on NCI-H226 lung, 26.9 µM and 33.7 µM; in the assay with RPMI-8226 leukemia, 6.55 µM and 8.62 µM; in the assay on SK-MEL-28 melanoma, 3.22 µM and 3.35 µM. Moreover, the TGI in the assay with SN12C renal is 34.6 µM and > 49.3 µM; in the assay on HL-60(TB) leukemia, 4.65 µM; in the assay with EKVX NSCLC, > 100 µM and 63.5 µM; in the assay on CAKI-1 renal, 20.6 µM and 23.9 µM.

As for `CO/C(=C1/NC(=O)C(Cc2ccc(O)c(Br)c2)N(C)C(=O)C(C)NC(=O)CCC/C=C(\C)CCC(C)OC1=O)c1ccccc1` (stereo not drawn), the GI50 with COLO 205 colon was 0.0233 µM; in the assay with UACC-62 melanoma it was 0.0753 µM; with HS 578T breast, 0.0225 µM; in the assay with NCI-H226 lung, 0.365 µM; in the assay on RPMI-8226 leukemia it was below 0.0155 µM; in the assay with SK-MEL-28 melanoma, below 0.0134 µM. Moreover, the GI50 was 0.0695 µM in the assay on SN12C renal, 0.033 µM in the assay on HL-60(TB) leukemia, 0.0425 µM in the assay with EKVX NSCLC and 0.0196 µM in the assay on CAKI-1 renal. For the same compound, the TGI was above 100 µM in the assay with COLO 205 colon; 20.4 µM in the assay with UACC-62 melanoma; 0.0553 µM with HS 578T breast; 3.17 µM in the assay on NCI-H226 lung; 0.0607 µM with RPMI-8226 leukemia; 0.0419 µM with SK-MEL-28 melanoma. The TGI with SN12C renal was above 100 µM; with HL-60(TB) leukemia it was 0.999 µM; with CAKI-1 renal, 0.0509 µM.

As for `O=C(O)c1ccc(/C=N/N=C2c3ccccc3-c3ccccc32)cc1`, the TGI in the assay with COLO 205 colon was above 100 µM; in the assay on UACC-62 melanoma it was above 100 µM; in the assay with HS 578T breast, 53.1 µM; with NCI-H226 lung, 45.5 µM; in the assay with RPMI-8226 leukemia it was above 100 µM; in the assay on SK-MEL-28 melanoma, above 100 µM. The TGI with SN12C renal was above 100 µM; in the assay with HL-60(TB) leukemia it was above 100 µM; in the assay on EKVX NSCLC, above 100 µM; in the assay on CAKI-1 renal, 93.3 µM.

As to `COc1cc(C)[nH]c(=O)c1CNC(=O)c1c(C)n([C@H](C)C2CCN(CC(F)(F)F)CC2)c2ccccc12`, the GI50 in the assay with UACC-62 melanoma is 32.5 µM; in the assay on HS 578T breast it was 95.3 µM; in the assay with NCI-H226 lung it was 34.4 µM; with RPMI-8226 leukemia it was 32.5 µM; in the assay with SK-MEL-28 melanoma it was 60.8 µM; in the assay with SN12C renal, 43 µM. Also, the GI50 with HL-60(TB) leukemia is 28.5 µM; in the assay on EKVX NSCLC, 37.5 µM. The TGI with UACC-62 melanoma, in the assay on HS 578T breast, in the assay on NCI-H226 lung, in the assay on RPMI-8226 leukemia, in the assay on SK-MEL-28 melanoma and in the assay with SN12C renal was above 100 µM throughout. Also, the TGI is 82.9 µM in the assay with HL-60(TB) leukemia and above 100 µM in the assay on EKVX NSCLC.

Take `O=c1/c(=C\c2ccc(Br)cc2)sc2n1C(c1ccc(Br)cc1)C1=C(N=2)c2ccc3ccccc3c2OCC1` (stereo not drawn): the GI50 in the assay with COLO 205 colon, with UACC-62 melanoma, in the assay on HS 578T breast, with NCI-H226 lung, in the assay with RPMI-8226 leukemia and in the assay on SK-MEL-28 melanoma was above 100 µM in each case. Moreover, the GI50 in the assay with HL-60(TB) leukemia and in the assay with EKVX NSCLC was above 100 µM each time. For the same compound, the TGI with COLO 205 colon, in the assay with UACC-62 melanoma, in the assay on HS 578T breast, with NCI-H226 lung, in the assay with RPMI-8226 leukemia and with SK-MEL-28 melanoma was above 100 µM throughout. Also, the TGI with HL-60(TB) leukemia and with EKVX NSCLC was above 100 µM each time.

With `C=C(Br)COc1ccc2c(C)cc(=O)oc2c1`, the TGI was 16.7 µM with COLO 205 colon; above 100 µM in the assay with HS 578T breast; above 100 µM in the assay on NCI-H226 lung; above 100 µM in the assay with RPMI-8226 leukemia; above 100 µM in the assay on SK-MEL-28 melanoma; above 100 µM in the assay on SN12C renal. Moreover, the TGI with HL-60(TB) leukemia, in the assay on EKVX NSCLC and with CAKI-1 renal was above 100 µM in each case.

Take `COC(=O)[C@]12CC[C@@H](C)[C@H](C)[C@@H]1C1=CC[C@@H]3[C@@](C)(CC#N)C4=C(C[C@@]3(C)[C@]1(C)CC2)OC[C@]4(C)C=O`: the GI50 with COLO 205 colon was 14.4 µM; in the assay with HS 578T breast, 6 µM; in the assay with NCI-H226 lung it was 8.51 µM; with RPMI-8226 leukemia, 3.05 µM; with SK-MEL-28 melanoma it was 4.11 µM; in the assay with HL-60(TB) leukemia, 3.03 µM. The GI50 with EKVX NSCLC was 4.32 µM; with CAKI-1 renal it was 6.32 µM. For the same compound, the TGI in the assay with COLO 205 colon amounted to 29.6 µM; in the assay on HS 578T breast it was 52.3 µM; with NCI-H226 lung it was 43.7 µM; in the assay on RPMI-8226 leukemia, 13.6 µM; in the assay with SK-MEL-28 melanoma it was 21.3 µM; in the assay with HL-60(TB) leukemia, 6.77 µM. The TGI was 48.7 µM in the assay on EKVX NSCLC and above 100 µM with CAKI-1 renal.

With `CC1[C@@H]2CC=C3[C@H]4CCC5Cc6nc7c(nc6C[C@@]5(C)C4CC(=O)[C@]32CO[C@]12OC(C)(C)CC2O)CC1CC[C@@H]2C3=C[C@H]4O[C@@]5(O[C@@](C)(CO)C[C@@H]5O)C(C)[C@@]4(O)[C@]3(C)[C@@H](O)CC2[C@]1(C)C7` (stereo partly drawn), the GI50 in the assay with COLO 205 colon is 0.00217 µM and 0.00857 µM; in the assay with UACC-62 melanoma, 0.000316 µM and 0.000574 µM; in the assay on HS 578T breast, 0.000112 µM; in the assay on RPMI-8226 leukemia it was 0.000106 µM and < 0.000365 µM; with SK-MEL-28 melanoma it was 0.00062 µM; with SN12C renal, 0.295 µM. Moreover, the GI50 was 0.000355 µM and 0.000365 µM in the assay with HL-60(TB) leukemia; 0.00539 µM and 0.00763 µM in the assay on EKVX NSCLC. Also, the TGI with COLO 205 colon was 0.00721 µM and 0.0301 µM; with UACC-62 melanoma, 0.00098 µM and 0.0062 µM; with HS 578T breast, 0.00137 µM; with NCI-H226 lung, 0.0901 µM and 0.103 µM; in the assay on RPMI-8226 leukemia it was 0.000261 µM and < 0.000365 µM; in the assay with SK-MEL-28 melanoma it was 0.00273 µM. Further, the TGI in the assay on SN12C renal was 0.906 µM and > 3.65 µM; in the assay with EKVX NSCLC, 0.141 µM and 0.227 µM.
